Data as given in BindingDB's records for doi:10.1021/jm00168a028 (University of Minnesota, 1990).
Where a SMILES comes first, the peptide text is derived from it. [ ]: non-standard residue; d: D form. The star is where a group is joined. Tyr(Nα,Nα-allyl2) = C=CCN(CC=C)[C@@H](Cc1ccc(O)cc1)C(=O)*; Aib = CC(C)(N)C(=O)O

How the values were obtained:
[1] = Binding affinity was measured by the displacement of [3H]- DADLE in guinea pig brain membrane of Opioid receptor delta 1
[2] = as above; remark: listed apart in the source
[3] = Binding affinity was measured by the displacement of [3H]- DADLE in guinea pig brain membrane of opioid receptor delta

SMILES	Ki [1] [nM]	Ki [2] [nM]	Ki [3] [nM]
C=CCN(CC=C)[C@@H](Cc1ccc(O)cc1)C(=O)NC(C)(C)C(=O)NC(C)(C)C(=O)N[C@@H](Cc1ccccc1)C(=O)N[C@@H](CC(C)C)C(=O)O [ICI-174864] ({Tyr(Nα,Nα-allyl2)}-[Aib][Aib]FL-OH)	35		
CN1CC[C@]23c4c5ccc(O)c4O[C@H]2c2[nH]c4ccccc4c2C[C@@]3(O)[C@H]1C5		0.7	
COc1ccc2c3c1O[C@H]1c4[nH]c5ccccc5c4C[C@@]4(O)[C@@H](C2)N(CC2CC2)CC[C@]314 [22-cyclopropylmethyl-16-methoxy-(2S,13R)-14-oxa-11,22-diazaheptacyclo[13.9.1.01,13.02,21.04,12.05,10.019,25]pentacosa-4(12),5(10),6,8,15(25),16,18-heptaen-2-ol(HCl1.5H2O)]		40	40
